# Assays:
# [1] = poly(2-acrylamido-2-methylpropane sulfonic acid-co-n-butylmethacrylate) scaffold; PBS medium; optical density at 462
# Description: The release profile of dopamine from device polymeric element made of a positive electro-responsive polymer as described herein was measured as follows:
# Disc shaped preloaded slices of formed hydrogel (2-3 mm) were placed between two Graphite electrodes (1 cm apart) in a plastic culture plate. The electrodes were connected to a stimulus generator (STG-4002 multichannel systems, Germany), and the plate was filled with a medium of PBS (0.35 ml). A DC pulse of different intensities (0-8 volt) and different durations (0-15 minutes) was supplied.
# Nano-Drop spectrophotometer (ND-1000 spectrophotometer, Thermo scientific, Wilmington Del. U.S.A) at a wave length of 462 was used to examine the light absorbance of the medium. The relation between the light absorbance and the concentration is given by Beer-Lambert as a linear equation: A=εlc
# wherein A is the light absorbance, l is the length of the light through the sample [m], C is the concentration in [M], and ε is the molar absorptivity [m^−1M^−1].
# [2] = system: neonatal rat ventricular cardiomyocytes; assay: Action potentials recorded from the engineered (cyborg) tissue before and after adding a stimulating drug; type: cell-based; conditions: 100 nM in growth medium, 15 minutes incubation; single electrode; device with albumin fibrous scaffold; before vs after drug
# Description: After the device was incubated for a time period that allows tissue generation, the obtained cyborg tissue was connected to the pre-amplifier and monitored through the computer, using a system as exemplified in FIG. 8. This allows monitoring the progress of tissue formation as well as studying the influence of different conditions and substances on the tissue, an approach that could replace animal drug testing and make it easier and simpler.
# At the time of the recording, the device was connected to a ME64-FAI-MPA-System by multichannel systems (Germany). Action potentials were recorded using the MC rack software which allows recording over multiple electrodes simultaneously.
# After action potentials were recorded, 100 nM of noradrenaline was added to the growth medium and the device was allowed to incubate for 15 minutes after which the device was reconnected and action potentials were again recorded.
# [3] = Release profile of SSA from polypyrrole hydrogel scaffold upon voltage application; type: physicochemical; conditions: absorbance at 280 nm
# Description: Pyrrole was […] in a 10-mL one-compartment cell, using an electrochemical workstation under computer control. The gold-based microelectrodes, prepared as described in Example 1 hereinabove, were used as working electrodes. The counter electrode was platinum wire and the reference electrode was a saturated calomel electrode (SCE). The electrolyte was an aqueous solution (100 ml) containing 0.2 M pyrrole (1.39 ml) and 0.2 M sulfosalicylic acid (5.08 grams), which was degassed by nitrogen stream before polymerization was effected. The SSA-doped PPy films (PPy-SSA) were prepared on the gold microelectrodes by galvanostatic polymerization using a current density of 2.5 mA/cm^2 for 800 seconds. The as-prepared PPy-SSA films were rinsed with de-ionized water and dried in air at room temperature. A second layer was thereafter deposited by using an aqueous solution (100 ml) of 0.2 M pyrrole and 0.1 M NaCl (0.5844 grams), subjected to a galvanostatic polymerization with a current density of 2 mA/cm^2 for 500 seconds.
smiles,measurement,setting,value
NCCc1ccc(O)c(O)c1 [dopamine],"drug release rate, voltage on vs off",[1],much higher drug release rate when voltage is applied (on) than when it is not applied (off)
NC[C@H](O)c1ccc(O)c(O)c1 [Noradrenalin],frequency of the action potentials,[2],increased
"O=C(O)c1cc(S(=O)(=O)O)ccc1O [SSA, Sulfosalicylic acid]","drug release, voltage on vs off",[3],When voltage is applied the drug is released into the polymer's vicinity and when voltage application is discontinued drug release ceases

# Reference: patent publication US10987059B2, “Electronic scaffold and uses thereof” (Ramot at Tel-Aviv University Ltd., priority 2013, dated 2021)
